Experimental data: ChEMBL document CHEMBL3885881, “DrugMatrix”

Species on record: Rattus norvegicus
Test: DrugMatrix - Regimen: Daily Repeat
Format: toxicity, organism-based, Sprague-Dawley
Parameters: regimen Daily Repeat, gender Male, age 6-8 weeks
Conditions: in vivo, po, route oral GAVAGE, […]; for ABSOLUTE BASOPHIL / ABSOLUTE EOSINOPHIL / ABSOLUTE LYMPHOCYTE / ABSOLUTE MONOCYTE / ABSOLUTE SEGMENTED NEUTROPHIL / BASOPHIL / EOSINOPHIL / ERYTHROCYTE COUNT / HEMATOCRIT / HEMOGLOBIN / LEUKOCYTE COUNT / LYMPHOCYTE / MEAN CORPUSCULAR HEMOGLOBIN / MEAN CORPUSCULAR HEMOGLOBIN CONCENTRATION / MEAN CORPUSCULAR VOLUME / MONOCYTE / NEUTROPHIL / NUCLEATED RED BLOOD CELLS / PLATELET COUNT: tissue Blood; for ALANINE AMINOTRANSFERASE / ALBUMIN / ALKALINE PHOSPHATASE / ASPARTATE AMINOTRANSFERASE / BLOOD UREA NITROGEN / CARBON DIOXIDE / CHLORIDE / CHOLESTEROL / CREATINE PHOSPHOKINASE / CREATININE / GLUCOSE / LACTATE DEHYDROGENASE / LIPASE / PHOSPHORUS / POTASSIUM / SODIUM / TOTAL BILIRUBIN / TOTAL PROTEIN / URIC ACID: tissue Plasma
[1] = 0 mg/kg, 72 h, dose level Control, time 3 day
[2] = 0 mg/kg, 120 h, dose level Control, time 5 day
[3] = 47 mg/kg, 72 h, dose level Low, time 3 day

SMILES: CC(=O)Nc1nnc(S(N)(=O)=O)s1 [ACETAZOLAMIDE]
- ABSOLUTE BASOPHIL [1]: 0 CELLS/uL
- ABSOLUTE EOSINOPHIL [1]: 41.83 CELLS/uL
- ABSOLUTE LYMPHOCYTE [1]: 8545.5 CELLS/uL
- ABSOLUTE MONOCYTE [1]: 240 CELLS/uL
- ABSOLUTE SEGMENTED NEUTROPHIL [1]: 906 CELLS/uL
- BASOPHIL [1]: 0%
- EOSINOPHIL [1]: 0.33%
- ERYTHROCYTE COUNT [1]: 5.6 x10E6/uL
- HEMATOCRIT [1]: 35.4%
- HEMOGLOBIN [1]: 13.42 G/DL
- LEUKOCYTE COUNT [1]: 9.73 x10E3/uL
- LYMPHOCYTE [1]: 87.83%
- MEAN CORPUSCULAR HEMOGLOBIN [1]: 23.98 pg
- MEAN CORPUSCULAR HEMOGLOBIN CONCENTRATION [1]: 37.92 G/DL
- MEAN CORPUSCULAR VOLUME [1]: 63.3 fL
- MONOCYTE [1]: 2.5%
- NEUTROPHIL [1]: 9.33%
- NUCLEATED RED BLOOD CELLS [1]: 0 /100WBC
- PLATELET COUNT [1]: 1032 x10E3/uL
- ALANINE AMINOTRANSFERASE [1]: 72.83 u/L
- ALBUMIN [1]: 4 G/DL
- ALKALINE PHOSPHATASE [1]: 322.83 u/L
- ASPARTATE AMINOTRANSFERASE [1]: 102.67 u/L
- BLOOD UREA NITROGEN [1]: 12 mg/dL
- CARBON DIOXIDE [1]: 34.33 mmol/L
- CHLORIDE [1]: 97.67 MEQ/L
- CHOLESTEROL [1]: 82.5 mg/dL
- CREATINE PHOSPHOKINASE [1]: 410.33 u/L
- CREATININE [1]: 0.18 mg/dL
- GLUCOSE [1]: 164.5 mg/dL
- LACTATE DEHYDROGENASE [1]: 119.5 u/L
- LIPASE [1]: 11.83 u/L
- PHOSPHORUS [1]: 9.52 mg/dL
- POTASSIUM [1]: 5.56 MEQ/L
- SODIUM [1]: 142.48 MEQ/L
- TOTAL BILIRUBIN [1]: 0.18 mg/dL
- TOTAL PROTEIN [1]: 5.77 G/DL
- URIC ACID [1]: 0.48 mg/dL
- ABSOLUTE BASOPHIL [2]: 0 CELLS/uL
- ABSOLUTE EOSINOPHIL [2]: 0 CELLS/uL
- ABSOLUTE LYMPHOCYTE [2]: 9065 CELLS/uL
- ABSOLUTE MONOCYTE [2]: 341.33 CELLS/uL
- ABSOLUTE SEGMENTED NEUTROPHIL [2]: 527 CELLS/uL
- BASOPHIL [2]: 0%
- EOSINOPHIL [2]: 0%
- ERYTHROCYTE COUNT [2]: 5.25 x10E6/uL
- HEMATOCRIT [2]: 34.08%
- HEMOGLOBIN [2]: 13.5 G/DL
- LEUKOCYTE COUNT [2]: 9.93 x10E3/uL
- LYMPHOCYTE [2]: 91.17%
- MEAN CORPUSCULAR HEMOGLOBIN [2]: 25.7 pg
- MEAN CORPUSCULAR HEMOGLOBIN CONCENTRATION [2]: 39.62 G/DL
- MEAN CORPUSCULAR VOLUME [2]: 64.93 fL
- MONOCYTE [2]: 3.33%
- NEUTROPHIL [2]: 5.5%
- NUCLEATED RED BLOOD CELLS [2]: 0 /100WBC
- PLATELET COUNT [2]: 1077.5 x10E3/uL
- ALANINE AMINOTRANSFERASE [2]: 57.83 u/L
- ALBUMIN [2]: 4.07 G/DL
- ALKALINE PHOSPHATASE [2]: 319.17 u/L
- ASPARTATE AMINOTRANSFERASE [2]: 83.33 u/L
- BLOOD UREA NITROGEN [2]: 13.67 mg/dL
- CARBON DIOXIDE [2]: 30.83 mmol/L
- CHLORIDE [2]: 98.33 MEQ/L
- CHOLESTEROL [2]: 64.83 mg/dL
- CREATINE PHOSPHOKINASE [2]: 263.67 u/L
- CREATININE [2]: 0.2 mg/dL
- GLUCOSE [2]: 182.83 mg/dL
- LACTATE DEHYDROGENASE [2]: 124 u/L
- LIPASE [2]: 10.5 u/L
- PHOSPHORUS [2]: 10 mg/dL
- POTASSIUM [2]: 5.78 MEQ/L
- SODIUM [2]: 142.48 MEQ/L
- TOTAL BILIRUBIN [2]: 0.2 mg/dL
- TOTAL PROTEIN [2]: 6 G/DL
- URIC ACID [2]: 0.7 mg/dL
- ABSOLUTE BASOPHIL [3]: 0 CELLS/uL
- ABSOLUTE EOSINOPHIL [3]: 0 CELLS/uL
- ABSOLUTE LYMPHOCYTE [3]: 9847 CELLS/uL
- ABSOLUTE MONOCYTE [3]: 251.33 CELLS/uL
- ABSOLUTE SEGMENTED NEUTROPHIL [3]: 935 CELLS/uL
- BASOPHIL [3]: 0%
- EOSINOPHIL [3]: 0%
- ERYTHROCYTE COUNT [3]: 5.11 x10E6/uL
- HEMATOCRIT [3]: 32.2%
- HEMOGLOBIN [3]: 12.47 G/DL
- LEUKOCYTE COUNT [3]: 11.03 x10E3/uL
- LYMPHOCYTE [3]: 88.67%
- MEAN CORPUSCULAR HEMOGLOBIN [3]: 24.43 pg
- MEAN CORPUSCULAR HEMOGLOBIN CONCENTRATION [3]: 38.77 G/DL
- MEAN CORPUSCULAR VOLUME [3]: 63 fL
- MONOCYTE [3]: 2.33%
- NEUTROPHIL [3]: 9%
- NUCLEATED RED BLOOD CELLS [3]: 0 /100WBC
- PLATELET COUNT [3]: 1122.33 x10E3/uL
- ALANINE AMINOTRANSFERASE [3]: 67 u/L
- ALBUMIN [3]: 3.77 G/DL
- ALKALINE PHOSPHATASE [3]: 486.33 u/L
- ASPARTATE AMINOTRANSFERASE [3]: 91.33 u/L
- BLOOD UREA NITROGEN [3]: 11.33 mg/dL
- CARBON DIOXIDE [3]: 31 mmol/L
- CHLORIDE [3]: 99 MEQ/L
- CHOLESTEROL [3]: 74 mg/dL
- CREATINE PHOSPHOKINASE [3]: 250 u/L
- CREATININE [3]: 0.31 mg/dL
- GLUCOSE [3]: 173 mg/dL
- LACTATE DEHYDROGENASE [3]: 140.67 u/L
- LIPASE [3]: 13.33 u/L
- PHOSPHORUS [3]: 10.33 mg/dL
- POTASSIUM [3]: 5.3 MEQ/L
- SODIUM [3]: 144.37 MEQ/L
- TOTAL BILIRUBIN [3]: 0.23 mg/dL
- TOTAL PROTEIN [3]: 5.5 G/DL
- URIC ACID [3]: 0.67 mg/dL
